# In patent publication US7732604B2, “Triazolopyrazine derivatives” (Pfizer Inc., priority 2006, dated 2010):
# Where a name gives a salt, the structure may show the parent alone.
# Target: T1, HGFR (Homo sapiens, UniProt P08581)
# T1 construct: purchased Upstate 14-526
# Test: HGFR continuous-coupled spectrophotometric assay (tyrosine kinase activity on Met-2 substrate peptide)
# Format: biochemical
# Settings: HGFR 50 nM, Met-2 peptide 0.5 mM, ATP 300 μM, 37° C., absorbance 340 nm; read-out: Ki
# T1 sequence (P08581 974-1390 limits assumed): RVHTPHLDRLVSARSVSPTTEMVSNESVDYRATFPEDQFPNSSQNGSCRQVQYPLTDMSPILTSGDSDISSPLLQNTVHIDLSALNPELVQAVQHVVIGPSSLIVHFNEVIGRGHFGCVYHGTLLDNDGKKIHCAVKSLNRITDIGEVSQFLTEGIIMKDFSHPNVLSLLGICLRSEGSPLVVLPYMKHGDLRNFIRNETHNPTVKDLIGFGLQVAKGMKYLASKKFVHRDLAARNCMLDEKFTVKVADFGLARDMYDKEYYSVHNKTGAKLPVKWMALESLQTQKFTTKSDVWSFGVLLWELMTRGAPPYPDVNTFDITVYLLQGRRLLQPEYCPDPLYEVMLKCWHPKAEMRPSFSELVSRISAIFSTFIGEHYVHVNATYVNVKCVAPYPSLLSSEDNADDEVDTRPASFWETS
row,SMILES,Ki [nM]
1,"C[C@@H](CO)Nc1cnc2nnn(Cc3ccc4ncccc4c3)c2n1 [Example 118, (2S)-2-{[1-(quino-lin-6-yl-methyl)-1H-[1,2,3]tri-azolo[4,5-b]pyra-zin-6-yl]ami-no}propan-1-ol]",41
2,"NC[C@H]1CCN(c2cnc3nnn(Cc4ccc5ncccc5c4)c3n2)C1 [Example 136, 1-[(3R)-1-[1-(quino-lin-6-yl-methyl)-1H-[1,2,3]tri-azolo[4,5-b]pyra-zin-6-yl]pyrro-lidin-3-yl}methanamine]",30
3,"CC(C)(C(N)=O)n1cc(-c2cnc3nnn(Cc4ccc5ncccc5c4)c3n2)cn1 [Example 67, 2-[4-(3-Quinolin-6-ylmethyl-3H-[1,2,3]triazolo[4,5-b]pyrazin-5-yl)-pyrazol-1-yl]-isobutyramide]",41
4,"c1cnc2ccc(Cn3nnc4ncc(NCc5cnn6cccnc56)nc43)cc2c1 [Example 122, N-(pyrazolo[15-a]pyrimi-din-3-yl-methyl)-1-(quino-lin-6-yl-methyl)-1H-[1,2,3]tri-azolo[4,5-b]pyra-zin-6-amine]",25
5,"O=C1CCN(c2cnc3nnn(Cc4ccc5ncccc5c4)c3n2)C1 [Example 154, 1-[1-(quinolin-6-yl-methyl)-1H-[1,2,3]tri-azolo[4,5-b]pyra-zin-6-yl]pyrro-lidin-3-one]",39
6,OC[C@@H]1C[C@H](F)CN1c1cnc2nnn(Cc3ccc4ncccc4c3)c2n1 [Example 96],17
7,"NCCNC(=O)c1ccc(-c2cnc3nnn(Cc4ccc5ncccc5c4)c3n2)cc1 [Example 11, N-(2-aminoethyl)-4-(3-(quinolin-6-ylmethyl)-3H-[1,2,3]triazolo[4,5-b]pyrazin-5-yl)benzamide]",4
8,"CC(C)(CNc1cnc2nnn(Cc3ccc4ncccc4c3)c2n1)NC(=O)OC(C)(C)C [Example 188, tert-butyl(1,1-di-methyl-2-{[1-(quino-lin-6-yl-methyl)-1H-[1,2,3]tri-azolo[4,5-b]pyra-zin-6-yl]ami-no}ethyl)carbamate]",103
9,"CCc1cnc2nnn(Cc3ccc4ncccc4c3)c2n1 [Example 52, 6-(6-Ethyl-[1,2,3]triazolo[4,5-b]pyrazin-1-ylmethyl)-quinoline]",88
10,"O=C(O)c1cc(F)cc(-c2cnc3nnn(Cc4ccc5ncccc5c4)c3n2)c1 [Example 40, 3-fluoro-5-(3-(quinolin-6-ylmethyl)-3H-[1,2,3]triazolo[4,5-b]pyrazin-5-yl)benzoic acid]",12
11,"CC1(CO)CCN(c2cnc3nnn(Cc4ccc5ncccc5c4)c3n2)CC1 [Example 94, {4-methyl-1-[1-(quino-lin-6-yl-methyl)-1H-[1,2,3]tri-azolo[4,5-b]pyra-zin-6-yl]pipe-ridin-4-yl}methanol]",36
12,"OCC[C@H]1CN(c2cnc3nnn(Cc4ccc5ncccc5c4)c3n2)C[C@H]1CO [Example 110, 2-{(3R,4S)-4-(hydroxy-methyl)-1-[1-(quino-lin-6-yl-methyl)-1H-[1,2,3]tri-azolo[4,5-b]pyra-zin-6-yl]pyrro-lidin-3-yl}eth-anol]",23
13,"CC(O)c1cnc2nnn(Cc3ccc4ncccc4c3)c2n1 (stereo not drawn) [Example 184, 1-(3-Quinolin-6-yl-methyl-3H-[1,2,3]tri-azolo[4,5-b]pyra-zin-5-yl)-ethanol]",231
14,"Fc1cc2ncccc2cc1Cn1nnc2ncc(N3CC[C@@H](N4CCOCC4)C3)nc21 [Example 171, 7-fluoro-6-({6-[(3R)-3-morpho-lin-4-yl-pyrrolidin-1-yl]-1H-[1,2,3]tri-azolo[4,5-b]pyra-zin-1-yl}meth-yl)quinoline]",10
15,"OCCC1(CO)CCN(c2cnc3nnn(Cc4ccc5ncccc5c4)c3n2)C1 (stereo not drawn) [Example 106, 2-{3-(hydroxy-methyl)-1-[1-(quino-lin-6-ylmethyl)-1H-[1,2,3]tri-azolo[4,5-b]pyra-zin-6-yl]pyr-rolidin-3-yl}ethanol]",9
16,"FC1CCN(C2CCN(c3cnc4nnn(Cc5ccc6ncccc6c5)c4n3)C2)CC1 (stereo not drawn) [Example 191, 6-({6-[3-(4-fluoro-piperidin-1-yl)pyrro-lidin-1-yl]-1H-[1,2,3]tri-azolo[4,5-b]pyra-zin-1-yl}methyl)quinoline]",142
17,"CC[C@H](CO)Nc1cnc2nnn(Cc3ccc4ncccc4c3)c2n1 [Example 116, (2R)-2-{[1-(quino-lin-6-yl-methyl)-1H-[1,2,3]tri-azolo[4,5-b]pyra-zin-6-yl]ami-no}butan-1-ol]",10
18,"NCCn1cc(-c2cnc3nnn(Cc4ccc5ncccc5c4)c3n2)cn1 [Example 2, 2-(4-(3-(quinolin-6-ylmethyl)-3H-[1,2,3]triazolo[4,5-b]pyrazin-5-yl)-1H-pyrazol-1-yl)ethanamine]",11
19,"CC(C)(O)CNc1cnc2nnn(Cc3cc4cccnc4cc3F)c2n1 [Example 172, 1-({1-[(7-fluoro-quinolin-6-yl)meth-yl]-1H-[1,2,3]tri-azolo[4,5-b]pyra-zin-6-yl}ami-no)-2-methyl-propan-2-ol]",4

row,SMILES,Ki [nM]
1,"CC(C)N(CCO)c1cnc2nnn(Cc3ccc4ncccc4c3)c2n1 [Example 73, 2-{isopropyl[1-(quino-lin-6-yl-methyl)-1H-[1,2,3]tri-azolo[4,5-b]py-razyl-6-yl]ami-no}ethanol]",37
2,"CN1CCN(c2cnc3nnn(Cc4ccc5ncccc5c4)c3n2)CC1=O [Example 89, 1-methyl-4-[1-(quino-lin-6-yl-methyl)-1H-[1,2,3]tri-azolo[4,5-b]pyra-zin-6-yl]pipe-razin-2-one]",41
3,"CC(C)(N)CNc1cnc2nnn(Cc3ccc4ncccc4c3)c2n1 [Example 141, 2-methyl-N~1~-[1-(quino-lin-6-yl-methyl)-1H-[1,2,3]tri-azolo[4,5-b]pyra-zin-6-yl]pro-pane-1,2-diamine]",6
4,"C[C@H](O)CNc1cnc2nnn(Cc3ccc4ncccc4c3)c2n1 [Example 117, (2S)-1-{[1-(quino-lin-6-yl-methyl)-1H-[1,2,3]tri-azolo[4,5-b]pyra-zin-6-yl]ami-no}propan-2-ol]",11
5,"COCCn1cc(-c2cnc3nnn(Cc4ccc5ncccc5c4)c3n2)cn1 [Example 6, 6-((6-(1-(2-methoxyethyl)-1H-pyrazol-4-yl)-1H-[1,2,3]triazolo[4,5-b]pyrazin-1-yl)methyl)-quinoline]",11
6,"CS(=O)(=O)C1CCN(c2cnc3nnn(Cc4ccc5ncccc5c4)c3n2)C1 (stereo not drawn) [Example 81, 6-({6-[3-(meth-ylsulfonyl)pyr-rolidin-1-yl]-1H-[1,2,3]tri-azolo[4,5-b]pyra-zin-1-yl}meth-yl)quinoline]",43
7,"CCc1noc(CN(C)c2cnc3nnn(Cc4ccc5ncccc5c4)c3n2)n1 [Example 91, N-[(3-ethyl-124-oxa-diazol-5-yl)meth-yl]-N-meth-yl-1-(quino-lin-6-yl-methyl)-1H-[1,2,3]tri-azolo[4,5-b]pyra-zin-6-amine]",25
8,"c1cnc2ccc(Cn3nnc4ncc(N5CCC(CCn6cccn6)CC5)nc43)cc2c1 [Example 92, 6-[(6-{4-[2-(1H-pyra-zol-1-yl)eth-yl]piperidin-1-yl}-1H-[1,2,3]tri-azolo[4,5-b]pyra-zin-1-yl)meth-yl]quinoline]",16
9,"CC(C)(C)OC(=O)N[C@@H]1CCCN(c2cnc3nnn(Cc4ccc5ncccc5c4)c3n2)C1 [Example 202, (R)-tert-butyl 1-(3-(quino-lin-6-yl-methyl)-3H-[1,2,3]tri-azolo[4,5-b]pyra-zin-5-yl)pipe-ridin-3-ylcarbamate]",620
10,"Cc1n[nH]c(C)c1-c1cnc2nnn(Cc3ccc4ncccc4c3)c2n1 [Example 63, 6-[6-(3,5-Dimethyl-1H-pyrazol-4-yl)-[1,2,3]triazolo[4,5-b]pyrazin-1-ylmethyl]-quinoline]",22
11,"CCC(CO)Nc1cnc2nnn(Cc3ccc4ncccc4c3)c2n1 (stereo not drawn) [Example 112, 2-{[1-(quinolin-6-yl-methyl)-1H-[1,2,3]tri-azolo[4,5-b]pyra-zin-6-yl]ami-no}butan-1-ol]",29
12,"O[C@@H]1C[C@H]2CN(c3cnc4nnn(Cc5ccc6ncccc6c5)c4n3)CCN2C1 [Example 105, (7R,8aS)-2-[1-(quino-lin-6-yl-methyl)-1H-[1,2,3]tri-azolo[4,5-b]pyra-zin-6-yl]octa-hydropyrro-lo[12-a]pyra-zin-7-ol]",29
13,"NC(=O)C1CCN(c2cnc3nnn(Cc4ccc5ncccc5c4)c3n2)C1 (stereo not drawn) [Example 176, 1-[1-(quinolin-6-yl-methyl)-1H-[1,2,3]tri-azolo[4,5-b]pyra-zin-6-yl]pyrro-lidine-3-carbox-amide]",23
14,"N[C@@H]1CCCN(c2cnc3nnn(Cc4ccc5ncccc5c4)c3n2)C1 [Example 31, (R)-1-(3-(quinolin-6-ylmethyl)-3H-[1,2,3]triazolo[4,5-b]pyrazin-5-yl)piperidin-3-amine dihydrochloride]",59
15,"CNC(=O)c1ccc(-c2cnc3nnn(Cc4ccc5ncccc5c4)c3n2)cc1 [Example 19, N-methyl-4-(3-(quinolin-6-ylmethyl)-3H-[1,2,3]triazolo[4,5-b]pyrazin-5-yl)benzamide]",3
16,"CN(C)[C@@H]1CCN(c2cnc3nnn(Cc4ccc5c(c4)CCO5)c3n2)C1 [Example 43, {(R)-1-[3-(2,3-Dihydro-benzofuran-5-ylmethyl)-3H-[1,2,3]triazolo[4,5-b]pyrazin-5-yl]-pyrrolidin-3-yl}-dimethyl-amine]",45
17,"CNc1cnc2nnn(Cc3ccc4ncccc4c3)c2n1 [Example 57, Methyl-(3-quinolin-6-ylmethyl-3H-[1,2,3]triazolo[4,5-b]pyrazin-5-yl)-amine]",11
18,"CCN(CCO)c1cnc2nnn(Cc3ccc4ncccc4c3)c2n1 [Example 74, 2-{ethyl[1-(quino-lin-6-yl-methyl)-1H-[1,2,3]tri-azolo[4,5-b]py-razin-6-yl]ami-no}ethanol]",33
19,"N#Cc1cnc2nnn(Cc3ccc4ncccc4c3)c2n1 [Example 163, 1-(quinolin-6-yl-methyl)-1H-[1,2,3]tri-azolo[4,5-b]pyra-zine-6-carbonitrile]",25

# Same assay, conditions: Ki, HGFR 50 nM, Met-2 peptide 0.5 mM, ATP 300 μM, 37° C., absorbance 340 nm
row,SMILES,Ki [nM]
1,"OCCN(CCO)c1cnc2nnn(Cc3ccc4ncccc4c3)c2n1 [Example 77, 2,2′-{[1-(quino-lin-6-yl-methyl)-1H-[1,2,3]tri-azolo[4,5-b]py-razin-6-yl]imi-no}diethanol]",19
